Results taken from patent publication US20030225152A1, “3-(Arylamino)methylene-1, 3-dihydro-2h-indol-2-ones as kinase inhibitors” (priority 2001, published 2003).

How the values were obtained:
[1] = test system: VEGF induced increases in intracellular calcium levels in HUVEC (human umbilical vein endothelial cells); test: VEGF Stimulated Ca++ Signal in vitro (FLIPR); assay type: cell-based; settings: VEGF 5 ng/mL; for IC50: 0.01 to 10.0 μM
Outline: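 HUVEC loaded with Fluo-4 (45 min, 37° C.), washed, then pre-incubated 30 min with compound (10 μM single dose or 0.01–10.0 μM; 0.1% DMSO) before 5 ng/mL VEGF. Fluorescence at 516 nm read by FLIPR; IC50 from % inhibition of max-min VEGF response.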

[2] = molecular target: T1, cytoplasmic domain of the human VEGF receptor (VEGFR-2) (Homo sapiens, UniProt P35968); test: KDR Assay; assay type: biochemical; settings: His-VEGFR-2; 3.6 μM ATP
T1 construct: The cytoplasmic domain of the human VEGF receptor (VEGFR-2) was expressed as a Histidine-tagged fusion protein; Histidine tag
Description: The cytoplasmic domain of the human VEGF receptor (VEGFR-2) was expressed as a Histidine-tagged fusion protein following infection of insect cells using an engineered baculovirus. His-VEGFR-2 was purified to homogeneity, as determined by SDS-PAGE, using nickel resin chromatography. Kinase assays were performed in 96 well microtiter plates that were coated overnight with 30 μg of poly-Glu-Tyr (4:1) in 10 mM Phosphate Buffered Saline (PBS), pH 7.2-7.4. The plates were incubated with 1% BSA and then washed four times with PBS prior to starting the reaction. Reactions were carried out in 120 μL reaction volumes containing 3.6 μM ATP in kinase buffer (50 mM Hepes buffer pH 7.4, 20 mM MgCl2, 0.1 mM MnCl2 and 0.2 mM Na3VO4). Test compounds were reconstituted in 100% DMSO and added to the reaction to give a final DMSO concentration of 5%. Reactions were initiated by the addition 0.5 ng of purified protein. Following a ten minute incubation at 25° C., the reactions were washed four times with PBS containing 0.05% Tween-20. 100 μl of a monoclonal anti-phosphotyrosine antibody-peroxidase conjugate was diluted 1:10000 in PBS-Tween-20 and added to the wells for 30 minutes. Following four washes with PBS-Tween-20, 100 μl of O-phenylenediamine Dihydrochloride in Phosphate-citrate buffer, containing urea hydrogen peroxide, was added to the wells for 7 minutes as a colorimetric substrate for the peroxidase. The reaction was terminated by the addition of 100 μl of 2.5N H2SO4 to each well and read using a microplate ELISA reader set at 492 nm. IC50 values for compound inhibition were calculated directly from graphs of optical density (arbitrary units) versus compound concentration following subtraction of blank values.

T1 sequence (P35968 786-1356): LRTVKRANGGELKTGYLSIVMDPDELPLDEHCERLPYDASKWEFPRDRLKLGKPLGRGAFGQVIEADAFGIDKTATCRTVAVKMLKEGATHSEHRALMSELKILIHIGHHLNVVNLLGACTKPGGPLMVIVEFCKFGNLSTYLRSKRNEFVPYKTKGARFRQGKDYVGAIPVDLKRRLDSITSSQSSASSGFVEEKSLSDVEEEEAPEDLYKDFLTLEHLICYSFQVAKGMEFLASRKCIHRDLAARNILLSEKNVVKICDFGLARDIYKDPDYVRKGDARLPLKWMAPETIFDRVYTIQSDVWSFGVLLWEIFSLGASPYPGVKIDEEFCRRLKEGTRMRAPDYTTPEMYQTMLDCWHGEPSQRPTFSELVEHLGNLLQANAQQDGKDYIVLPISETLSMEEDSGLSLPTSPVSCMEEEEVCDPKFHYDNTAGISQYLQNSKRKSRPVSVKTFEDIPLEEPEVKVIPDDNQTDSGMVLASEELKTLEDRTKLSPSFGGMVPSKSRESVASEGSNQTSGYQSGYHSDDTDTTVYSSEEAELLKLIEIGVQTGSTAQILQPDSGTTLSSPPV

## O=C1Nc2ccccc2C1=CNc1ccc(OCCCN2CCSCC2)cc1 [Example 225, 3-{[4-(3-Thiomorpholin-4-yl-propoxy)-phenylamino]-methylene}-1,3-dihydro-indol-2-one]
[1]
  IC50: 560 nM
[1]; Homo sapiens
  inhibition at 10 µM: 95.7%
  IC50: ≤ 1000 nM
[2]
  IC50: 290 nM

## Cc1cccc2c1C(=CNc1ccc(CC(=O)O)cc1)C(=O)N2 [Example 131, {4-[(4-Methyl-2-oxo-1,2-dihydro-indol-3-ylidenemethyl)-amino]-phenyl}-acetic acid]
[1]; Homo sapiens
  inhibition at 10 µM: 96.7%
  IC50: 1550 nM
[2]
  IC50: 770 nM

## O=C1Nc2ccc(Cl)cc2C1=CNc1ccc(OCCCN2CCCCC2)cc1 [Example 241, 5-Chloro-3-{[4-(3-piperidin-1-yl-propoxy)-phenylamino]-methylene}-1,3-dihydro-indol-2-one]
[1]; Homo sapiens
  inhibition at 10 µM: 95.8%
  IC50: 1010 nM
[2]
  IC50: 130 nM

## O=C1Nc2ccc(F)cc2C1=CNc1cccc(O)c1 [Example 177, 5-Fluoro-3-[(3-hydroxy-phenylamino)-methylene]-1,3-dihydro-indol-2-one]
[1]
  IC50: 740 nM
[1]; Homo sapiens
  inhibition at 10 µM: 98.2%
  IC50: ≤ 1000 nM
[2]
  IC50: 750 nM

## CCN(CC)c1ccc(NC=C2C(=O)Nc3ccccc32)cc1 [Example 188, 3-[(4-Diethylamino-phenylamino)-methylene]-1,3-dihydro-indol-2-one]
[1]
  IC50: 530 nM
[1]; Homo sapiens
  inhibition at 10 µM: 98%
  IC50: ≤ 1000 nM
[2]
  IC50: 180 nM

## O=C1Nc2ccccc2C1=CNc1ccc(OCCCI)cc1 [Example 200, 3-{[4-(3-Iodo-propoxy)-phenylamino]-methylene}-1,3-dihydro-indol-2-one]
[1]; Homo sapiens
  inhibition at 10 µM: 75.2%
  IC50: 3480 nM
[2]
  IC50: 740 nM

## CC(O)c1cccc(NC=C2C(=O)Nc3ccccc32)c1 (centres unmarked) [Example 182, 3-{[3-(1-Hydroxy-ethyl)-phenylamino]-methylene}-1,3-dihydro-indol-2-one]
[1]; Homo sapiens
  inhibition at 10 µM: 99.3%
  IC50: 950 nM
[2]
  IC50: 1650 nM

## COc1cccc(NC=C2C(=O)Nc3ccc(Cl)cc32)c1 [Example 57, 5-Chloro-3-[(3-methoxy-phenylamino)-methylene]-1,3-dihydro-indol-2-one]
[1]; Homo sapiens
  inhibition at 10 µM: 60%
  IC50: 5850 nM
[2]
  IC50: 1880 nM

## O=C1Nc2ccccc2C1=CNc1cccc(S(=O)(=O)N(CCO)CCO)c1 [Example 190, N,N-Bis-(2-hydroxy-ethyl)-3-[(2-oxo-1,2-dihydro-indol-3-ylidenemethyl)-amino]-benzenesulfonamide]
[1]; Homo sapiens
  inhibition at 10 µM: 54.1%
  IC50: 9990 nM
[2]
  IC50: 6960 nM

## O=C1Nc2ccc(F)cc2C1=CNc1ccccc1 [Example 169, 5-Fluoro-3-phenylaminomethylene-1,3-dihydro-indol-2-one]
[1]; Homo sapiens
  inhibition at 10 µM: 93.4%
  IC50: 1160 nM
[2]
  IC50: 610 nM

## COc1ccc(NC=C2C(=O)Nc3ccc(Cl)cc32)cc1 [Example 73, 3-[(4-Methoxyphenylamino)-methylene]-5-chloro-1,3-dihydro-indol-2-one]
[1]; Homo sapiens
  inhibition at 10 µM: 56.5%
  IC50: 3650 nM
[2]
  IC50: 260 nM

## CCc1ccc(NC=C2C(=O)Nc3ccccc32)cc1 [Example 5, 3-[(4-Ethyl-phenylamino)-methylene]-1,3-dihydro-indol-2-one]
[1]; Homo sapiens
  inhibition at 10 µM: 77.3%
  IC50: 1820 nM
[2]
  IC50: 480 nM

## Cc1cccc2c1C(=CNc1ccc(CCO)cc1)C(=O)N2 [Example 113, 3-{[4-(2-Hydroxy-ethyl)-phenylamino]-methylene}-4-methyl-1,3-dihydro-indol-2-one]
[1]; Homo sapiens
  inhibition at 10 µM: 97.5%
[2]
  IC50: 200 nM

## COc1ccc(NC=C2C(=O)Nc3ccc(F)cc32)cc1F [Example 172, 5-Fluoro-3-[(3-fluoro-4-methoxy-phenylamino)-methylene]-1,3-dihydro-indol-2-one]
[1]; Homo sapiens
  inhibition at 10 µM: 93.3%
  IC50: 1400 nM
[2]
  IC50: 690 nM

## CCOC(=O)Nc1ccc(NC=C2C(=O)Nc3ccccc32)cc1O [Example 134, {2-Hydroxy-4-[(2-oxo-1,2-dihydro-indol-3-ylidenemethyl)-amino]-phenyl}-carbamic acid ethyl ester]
[1]; Homo sapiens
  inhibition at 10 µM: 83.1%
  IC50: 7390 nM
[2]
  IC50: 1120 nM
